# Assay results taken from PubChem BioAssay (NCI).
#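 Results reflect a 48-hour exposure of cells in 96-well plates to compound at five concentrations. GI50 is the concentration that inhibits growth by half. TGI: total growth inhibition.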
# How the values were obtained:
# Assay in all cases: inhibition of tumour cell growth, NCI panel, 48 h
# HCC-2998 colon = test system: HCC-2998 colon
# BT-549 breast = test system: BT-549 breast
# DU-145 prostate = test system: DU-145 prostate
# HCT-15 colon = test system: HCT-15 colon
# SF-539 CNS = test system: SF-539 CNS
# M14 melanoma = test system: M14 melanoma
# COLO 205 colon = test system: COLO 205 colon
# ACHN renal = test system: ACHN renal
# CCRF-CEM leukemia = test system: CCRF-CEM leukemia
# MALME-3M melanoma = test system: MALME-3M melanoma
# UACC-257 melanoma = test system: UACC-257 melanoma
# OVCAR-8 ovarian = test system: OVCAR-8 ovarian
# NCI-H522 lung = test system: NCI-H522 lung
# UO-31 renal = test system: UO-31 renal
# SF-268 CNS = test system: SF-268 CNS
# RXF 393 renal = test system: RXF 393 renal
# SNB-75 CNS = test system: SNB-75 CNS
# SK-MEL-28 melanoma = test system: SK-MEL-28 melanoma
# MCF7 breast = test system: MCF7 breast
# MDA-MB-231 breast = test system: MDA-MB-231 breast
# NCI/ADR-RES ovarian = test system: NCI/ADR-RES ovarian
# SNB-19 CNS = test system: SNB-19 CNS
# A498 renal = test system: A498 renal
# RPMI-8226 leukemia = test system: RPMI-8226 leukemia
# OVCAR-5 ovarian = test system: OVCAR-5 ovarian
# HL-60(TB) leukemia = test system: HL-60(TB) leukemia
# T-47D breast = test system: T-47D breast
# K-562 leukemia = test system: K-562 leukemia
# LOX IMVI melanoma = test system: LOX IMVI melanoma
# SN12C renal = test system: SN12C renal
# OVCAR-4 ovarian = test system: OVCAR-4 ovarian
# HOP-62 NSCLC = test system: HOP-62 NSCLC
# OVCAR-3 ovarian = test system: OVCAR-3 ovarian
# NCI-H226 lung = test system: NCI-H226 lung
# IGROV1 ovarian = test system: IGROV1 ovarian
# A549 NSCLC = test system: A549 NSCLC
# NCI-H460 lung = test system: NCI-H460 lung
# PC-3 prostate = test system: PC-3 prostate
# UACC-62 melanoma = test system: UACC-62 melanoma
# NCI-H23 lung = test system: NCI-H23 lung
# SK-MEL-5 melanoma = test system: SK-MEL-5 melanoma
# EKVX NSCLC = test system: EKVX NSCLC
# MDA-MB-435 = test system: MDA-MB-435
# HT29 colon = test system: HT29 colon
# HS 578T breast = test system: HS 578T breast
# U251 CNS = test system: U251 CNS
# SK-MEL-2 melanoma = test system: SK-MEL-2 melanoma
# 786-0 renal = test system: 786-0 renal
# KM12 colon = test system: KM12 colon
# SW-620 colon = test system: SW-620 colon
# CAKI-1 renal = test system: CAKI-1 renal
# MOLT-4 leukemia = test system: MOLT-4 leukemia
# SR leukemia = test system: SR leukemia
# TK-10 renal = test system: TK-10 renal
# HCT-116 colon = test system: HCT-116 colon
compound,measurement,setting,value
NCCCOc1cc2ccccc2cc1C(=O)NCCCOc1cc2ccccc2cc1C(=O)Nc1ccc(Cl)cc1O,GI50,HCC-2998 colon,992 nM
same,TGI,HCC-2998 colon,2480 nM
same,GI50,BT-549 breast,1850 nM
same,TGI,BT-549 breast,3600 nM
same,GI50,DU-145 prostate,720 nM
same,TGI,DU-145 prostate,2170 nM
same,GI50,HCT-15 colon,658 nM
same,TGI,HCT-15 colon,2320 nM
same,GI50,SF-539 CNS,1050 nM
same,TGI,SF-539 CNS,2570 nM
same,GI50,M14 melanoma,881 nM
same,TGI,M14 melanoma,2550 nM
same,GI50,COLO 205 colon,1700 nM
same,TGI,COLO 205 colon,3340 nM
same,GI50,ACHN renal,387 nM
same,TGI,ACHN renal,1440 nM
same,GI50,CCRF-CEM leukemia,334 nM
same,TGI,CCRF-CEM leukemia,11500 nM
same,GI50,MALME-3M melanoma,1480 nM
same,TGI,MALME-3M melanoma,3500 nM
same,GI50,UACC-257 melanoma,1230 nM
same,TGI,UACC-257 melanoma,2590 nM
same,GI50,OVCAR-8 ovarian,240 nM
same,TGI,OVCAR-8 ovarian,557 nM
same,GI50,NCI-H522 lung,929 nM
same,TGI,NCI-H522 lung,2890 nM
same,GI50,UO-31 renal,355 nM
same,TGI,UO-31 renal,1780 nM
same,GI50,SF-268 CNS,904 nM
same,TGI,SF-268 CNS,3170 nM
same,GI50,RXF 393 renal,240 nM
same,TGI,RXF 393 renal,928 nM
same,GI50,SNB-75 CNS,455 nM
same,TGI,SNB-75 CNS,1020 nM
same,GI50,SK-MEL-28 melanoma,289 nM
same,TGI,SK-MEL-28 melanoma,728 nM
same,GI50,MCF7 breast,183 nM
same,TGI,MCF7 breast,349 nM
same,GI50,MDA-MB-231 breast,629 nM
same,TGI,MDA-MB-231 breast,1820 nM
same,GI50,NCI/ADR-RES ovarian,1220 nM
same,TGI,NCI/ADR-RES ovarian,6010 nM
same,GI50,SNB-19 CNS,720 nM
same,TGI,SNB-19 CNS,2880 nM
same,GI50,A498 renal,552 nM
same,TGI,A498 renal,1990 nM
same,GI50,RPMI-8226 leukemia,578 nM
same,TGI,RPMI-8226 leukemia,7090 nM
same,GI50,OVCAR-5 ovarian,1090 nM
same,TGI,OVCAR-5 ovarian,2560 nM
same,GI50,HL-60(TB) leukemia,512 nM
same,TGI,HL-60(TB) leukemia,2200 nM
same,GI50,T-47D breast,1880 nM
same,TGI,T-47D breast,4240 nM
same,GI50,K-562 leukemia,262 nM
same,TGI,K-562 leukemia,1020 nM
same,GI50,LOX IMVI melanoma,436 nM
same,TGI,LOX IMVI melanoma,1780 nM
same,GI50,SN12C renal,1730 nM
same,TGI,SN12C renal,3830 nM
same,GI50,OVCAR-4 ovarian,247 nM
same,TGI,OVCAR-4 ovarian,737 nM
same,GI50,HOP-62 NSCLC,340 nM
same,TGI,HOP-62 NSCLC,1140 nM
same,GI50,OVCAR-3 ovarian,1810 nM
same,TGI,OVCAR-3 ovarian,3490 nM
same,GI50,NCI-H226 lung,477 nM
same,TGI,NCI-H226 lung,1110 nM
same,GI50,IGROV1 ovarian,1900 nM
same,TGI,IGROV1 ovarian,4420 nM
same,GI50,A549 NSCLC,198 nM
same,TGI,A549 NSCLC,383 nM
same,GI50,NCI-H460 lung,202 nM
same,TGI,NCI-H460 lung,387 nM
same,GI50,PC-3 prostate,306 nM
same,TGI,PC-3 prostate,974 nM
same,GI50,UACC-62 melanoma,1580 nM
same,TGI,UACC-62 melanoma,3530 nM
same,GI50,NCI-H23 lung,598 nM
same,TGI,NCI-H23 lung,2300 nM
same,GI50,SK-MEL-5 melanoma,1360 nM
same,TGI,SK-MEL-5 melanoma,2800 nM
same,GI50,EKVX NSCLC,740 nM
same,TGI,EKVX NSCLC,2430 nM
same,GI50,MDA-MB-435,899 nM
same,TGI,MDA-MB-435,2600 nM
same,GI50,HT29 colon,411 nM
same,TGI,HT29 colon,1610 nM
same,GI50,HS 578T breast,1860 nM
same,TGI,HS 578T breast,4390 nM
same,GI50,U251 CNS,187 nM
same,TGI,U251 CNS,350 nM
same,GI50,SK-MEL-2 melanoma,1210 nM
same,TGI,SK-MEL-2 melanoma,2910 nM
same,GI50,786-0 renal,199 nM
same,TGI,786-0 renal,441 nM
same,GI50,KM12 colon,288 nM
same,TGI,KM12 colon,983 nM
same,GI50,SW-620 colon,189 nM
same,TGI,SW-620 colon,381 nM
same,GI50,CAKI-1 renal,829 nM
same,TGI,CAKI-1 renal,2420 nM
same,GI50,MOLT-4 leukemia,314 nM
same,TGI,MOLT-4 leukemia,1540 nM
same,GI50,SR leukemia,194 nM
same,TGI,SR leukemia,871 nM
same,GI50,TK-10 renal,583 nM
same,TGI,TK-10 renal,1260 nM
same,GI50,HCT-116 colon,190 nM
same,TGI,HCT-116 colon,374 nM
